“Also recorded” adds a separate entry of the source.
Key:
DU 145 = tested on: DU 145; parameters: method as in PMID 9044824; conditions: DU 145 xenografted SCID mice, high doses; cited from earlier work
LNCaP = tested on: LNCaP; parameters: method as in PMID 9044824; conditions: LNCaP xenografted SCID mice, high doses; cited from earlier work
NHE1 [1] = tested on: NHE1; parameters: method as in PMID 21544803; conditions: cited from earlier work
NHE1 [2] = target: T1, NHE1 (Homo sapiens, UniProt P19634); assay: Na+/H+ exchanger activity, double ammonium chloride pulse assay in DU 145 cells; format: cell-based
T1 construct: the activity of the NHE1 protein in DU 145 cells; host or cells: DU 145 human prostate cancer cells
Procedure: We next tested the efficacy of a new family of NHE inhibitors on the activity of the NHE1 protein in DU 145 cells. In order to do this, we used a double-pulse assay, in which there were two consecutive ammonium-chloride-induced acidifications. The rate of recovery in the second pulse in the presence of the inhibitor was measured relative to that of the first pulse in the absence of the inhibitor. In control experiments, we observed that the second pulse, in the absence of the inhibitor, was equivalent to that of the first (Figure 3A). […] A summary of the results is shown in Figure 3C–G, [32] and a summary of the IC50 values can be found in Table 1. […]
Figure 3 Characterization of the effects of pharmacological compounds on the activity of the Na^+/H^+ exchanger using the double-pulse assay. Na^+/H^+ exchanger activity was determined as described in Figure 2 and in the Section 4, using a dual ammonium chloride pulse assay. The rate of recovery in the first pulse, in the absence of the drug, was measured. […]
Intracellular pH was measured using 2′,7-bis(2-carboxyethyl)-5(6) carboxyfluorescein acetoxymethyl ester (BCECF-AM), in a similar manner to that described in [29]. […] Cells were loaded with BCECF and fluorescence was measured using a PTI Deltascan spectrofluorometer. NHE1 activity was measured after inducing an acute acid load using ammonium chloride. […]

DU 145 cells [3] = assay: Cell migration, wound-healing assay; format: cell-based, human
Procedure: Figure 4 Effects of NHE1-KO or NHE1 inhibition on cell migration examined in wild-type (WT) and NHE1-knockout (KO) DU 145 cells. The rate of closure of the induced gap was evaluated using the wound-healing assay, as described in the Section 4. (A) Examples of the effects of NHE1-KO on wound closure. Upper panel: example of WT DU 145 cells with gaps at 0 and 24 h. Middle panel: example of DU 145 NHE1 KO cells at 0 and 24 h. Lower panel: example of RI cell growth. (B) Summary of results; * indicates significant differences from the same group at 0 h, p < 0.05, n ≥ 6. (C,D) Effects of different concentrations of various NHE1/uPA inhibitors on migration (gap closure) of DU 145 cells. CT: control; EMD: EM87580; other compounds are as names. (C) Summary of the effects of 2 µM of various compounds on the migration of wild-type DU 145 cells. (D) Summary of the effects of 10 µM of various compounds on the migration of wild-type DU 145 cells (BB2-30F was used at 30 µM); * indicates significant differences from untreated control cells at p < 0.05.
Cell migration was studied using a wound-healing assay similar to that described in [13]. Briefly, cells were seeded in 12-well plates ([…]) the day before assay, and then grown to a confluent monolayer. A “scratch” was created in the cell monolayer with a p20 pipette tip in a straight line. The cells were washed twice with PBS to remove the debris, and the medium was changed to 2 mL of growth medium. To obtain the same field during image acquisition, three crosses were marked on the outside of each well as a reference. The scratch gaps above and below the crosses were measured. We acquired six images of the scratch for each well using a Leica DM IRB microscope (at 10× magnification). Arbitrary measurements of gap closure were quantified using Image-Pro Plus software. A minimum of six images/well and five measurements/image were acquired for each treatment; all treatments were repeated at least three times. Data shown are representative of the decrease in gap distance at 24 h, compared to the initial measurement at 0 h. […]

NHE1 [4] = target: T1, NHE1; assay: Na+/H+ exchanger activity, recovery from acute acid load (BCECF); format: cell-based; conditions: 10 µM
From the text: In the next series of experiments, we used NHE1 activity assays to examine the activity of wild-type DU 145 cells and the knockout cell line. […] For the wild type, it illustrates the initial pH, alkalinization caused by ammonium chloride, and the recovery from acidification caused by the removal of ammonium chloride. The recovery upon reintroduction of NaCl is illustrated for both wild-type and knockout cells (Figure 2A,B), and a summary of six experiments is shown in Figure 2E. For wild-type cells, the recovery was robust, at a rate of over 0.008 pH units/s. […] This may be due to either leakage out of the cell, or to the action of other proton transporters present in cells. […]
Figure 2 Na^+/H^+ exchanger activity in parental DU 145 cells, in NHE1-knockout cells (NHE1-KO), and in knockout cells that had NHE1 reintroduced (NHE1-RI). […] The intracellular pH was recorded in cells transiently acidified using ammonium chloride addition. […] (E) Bar graph showing a summary of the initial rate of recovery; this was measured relative to the wild-type protein and recorded as delta pH/s. n ≥ 6, mean +/− SE. […] The activity of NHE1 was calculated from the changes over the first 20 s of recovery from the acid load, and was expressed as ΔpH/s. […]
Intracellular pH was measured using 2′,7-bis(2-carboxyethyl)-5(6) carboxyfluorescein acetoxymethyl ester (BCECF-AM), in a similar manner to that described in [29]. […]

uPA = uPA (Homo sapiens, UniProt P00749); assay: uPA activity assay; format: biochemical
Procedure: We next tested the efficacy of a new family of NHE inhibitors on the activity of the NHE1 protein in DU 145 cells. In order to do this, we used a double-pulse assay, in which there were two consecutive ammonium-chloride-induced acidifications. The rate of recovery in the second pulse in the presence of the inhibitor was measured relative to that of the first pulse in the absence of the inhibitor. In control experiments, we observed that the second pulse, in the absence of the inhibitor, was equivalent to that of the first (Figure 3A). […] A summary of the results is shown in Figure 3C–G, [32] and a summary of the IC50 values can be found in Table 1. The various compounds tested had differing potencies towards NHE1 activity. […] Figure 3C–G also show the inhibition of uPA activity for each compound on the same plots (red line), assayed as indicated in the Section 4. […] (Table 1).
Synthesis of NHE1/uPA inhibitors was as described previously, as was the determination of uPA activity, where each compound was described as the number in parentheses: BB2-50F (5), BB2-30F (26), AA1-111 (29), and AA1-135 (30).

DU 145 cells [5] = assay: Anchorage-dependent colony formation; format: cell-based, human; conditions: 10 µM, 8 days
Procedure: To examine anchorage-dependent colony formation, we used 60 mm polystyrene dishes that had been coated to introduce hydrophilic groups producing a standard growth surface (Sarstedt, Numbrecht, Germany). To measure anchorage-dependent colony growth, the cells were plated into in the 60 mm dishes at a density of 1000 cells per dish. They were grown in complete growth media. To examine the effects of various compounds, 2–30 µM of the indicated drugs were added to culture dishes. An equal volume of DMSO (vehicle) alone was added to otherwise-untreated controls. After growth for 8 days, colonies were fixed in ice-cold methanol; they were stained with 0.5% crystal violet in methanol and washed, and then left to air-dry. The colonies of > 50 cells/colony were imaged and counted. The number of […] colonies was normalized to the number of control colonies and presented as a percentage of control colonies formed.

T1 sequence (P19634 whole entry): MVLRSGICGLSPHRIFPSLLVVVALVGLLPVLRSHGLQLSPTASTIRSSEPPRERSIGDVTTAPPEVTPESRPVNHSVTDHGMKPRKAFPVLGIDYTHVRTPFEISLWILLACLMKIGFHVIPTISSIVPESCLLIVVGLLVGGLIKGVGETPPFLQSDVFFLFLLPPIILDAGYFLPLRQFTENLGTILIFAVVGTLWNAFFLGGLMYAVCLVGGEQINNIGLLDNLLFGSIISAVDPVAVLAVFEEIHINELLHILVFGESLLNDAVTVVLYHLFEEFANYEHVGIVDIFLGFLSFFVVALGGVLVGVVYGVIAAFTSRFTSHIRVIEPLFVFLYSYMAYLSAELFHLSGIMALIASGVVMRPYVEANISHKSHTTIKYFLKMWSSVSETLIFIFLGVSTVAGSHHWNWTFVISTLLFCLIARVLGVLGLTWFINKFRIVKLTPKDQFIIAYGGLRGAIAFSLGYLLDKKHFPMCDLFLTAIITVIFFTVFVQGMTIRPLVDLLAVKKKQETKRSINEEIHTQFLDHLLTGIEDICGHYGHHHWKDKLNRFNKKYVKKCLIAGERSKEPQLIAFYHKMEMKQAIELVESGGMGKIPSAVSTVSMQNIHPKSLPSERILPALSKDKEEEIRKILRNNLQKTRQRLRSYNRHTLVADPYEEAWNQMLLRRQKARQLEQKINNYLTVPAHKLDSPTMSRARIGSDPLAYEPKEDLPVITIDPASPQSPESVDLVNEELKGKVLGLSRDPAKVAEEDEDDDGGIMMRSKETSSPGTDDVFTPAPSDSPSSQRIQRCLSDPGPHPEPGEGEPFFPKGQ

SMILES | tumor growth (DU 145) | tumor growth (LNCaP) | inhibition of NHE1 (in words) (NHE1 [1]) | NHE1 inhibition (in words) (NHE1 [2]; 2 µM) | IC50 (NHE1 [2]; DU 145 cells, double-pulse assay, read-out: Potency (IC50) towards NHE1) [nM] | cell migration (DU 145 cells [3]; 2 µM, DU 145) | cell migration (gap closure) (DU 145 cells [3]; 10 µM, 24 h, wild-type DU 145) | migration (gap closure) (DU 145 cells [3]; any of the groups, including wild-type and RI DU 145 cells) | NHE1 activity (initial rate of recovery) (NHE1 [4]; RI cells (NHE1 reintroduced into KO DU 145)) | NHE1 activity (initial rate of recovery) (NHE1 [4]; wild-type DU 145 cells) | inhibition of uPA activity (in words) (uPA) | uPA inhibition (in words) (uPA; 2 µM) | anchorage-dependent colony formation (DU 145 cells [5])
N=C(N)NC(=O)c1nc(Cl)c(N)nc1N [Amiloride] | inhibit | inhibit | low μM inhibitor |  |  |  |  |  |  |  |  |  | 
[H]/N=C(\N)NC(=O)c1cc(S(C)(=O)=O)c(S(C)(=O)=O)cc1C [EMD87580, rimeporide] |  |  |  | complete NHE1 inhibition | 450 | lack of effect | only very slight, non-significant effects | did not reduce migration | eliminated | eliminated | no inhibitory activity; also recorded: no effect on uPA | minimal inhibition of uPA | no effect
